Where “and” joins values, the source holds several entries; their conditions need not be identical. Equal values may be shown once. Read-outs that look alike come from different tables or passages of the source.
Legend:
[1] = test system: toxicologically relevant rat genes (rat CT array); conditions: rat, in vivo
Sprague Dawley rats = conditions: rat, in vivo, ip; for Score (histopathology liver necrosis severity score): Sprague Dawley, 72 h
Procedure: Sprague Dawley rats Crl:CD from Charles River, Raleigh, N.C. were divided into treated rats that receive a specific concentration of the compound (see Table 1) and. control rats that only received the vehicle in which the compound is mixed (e.g., saline).
At specified timepoints (6 h, 24 h and 72 h) after administration (intraperitoneal route) of the compound, a set number of rats (usually 3 control and 3 treated) were euthanized and tissues collected. Each, rat was heavily sedated with an overdose of CO2 by inhalation and a maximum amount of blood drawn. Exsanguination of the rat by this drawing of blood kills the rat. The method of collecting the tissues is very important and ensures preserving the quality of the mRNA in the tissues. The body of the rat was then opened up and prosectors rapidly removed the tissues (including) and immediately placed them into liquid nitrogen. […] The organs/tissues were then packaged into well-labeled plastic freezer quality bags and stored at −80 degrees until needed for isolation of the mRNA from a portion of the organ/tissue sample.
Histopathology scores for each animal (assigned on a compound-dose basis as indicated in Table 1) were entered with gene expression data by using the GeneSpring™ ‘Drawn Gene’ function. Correlations between the histopathology scores and gene expression were conducted with the distance measures listed below:
Toxicity classifications were entered for training and test set as a parameter column. Toxicity, as defined by observation of necrosis in the at 72 hours after treatment, was entered as a “yes” or “no” for each animal in a compound-dose group. Additionally, a parameter column for random histopathology classification was designated. This was done by randomly assigning the same number of “yes” and “no” calls to the individual animals.

CC/C(=C(\c1ccccc1)c1ccc(OCCN(C)C)cc1)c1ccccc1 [tamoxifen]
14-3-3 zeta expression [1]: 1.06 and 1.114 and 1.024 and 1.069 and 1.078 | 60S ribosomal protein L6 expression [1]: 1.136 and 1.258 and 1.391 (2×) and 1.1 | Adenine nucleotide translocator 1 expression [1]: 0.8038 and 0.8428 and 1.025 and 0.963 and 1.349 | Alpha-1 microglobulin/bikunin precursor (Ambp) expression [1]: 1.137 and 1.13 and 1.288 and 1.072 and 1.505 | Alpha-tubulin expression [1]: 0.9413 and 0.9605 and 0.9619 and 0.9049 and 1.355 | Aquaporin-3 (AQP3) expression [1]: 0.9813 and 0.7741 and 0.9894 and 0.9996 and 0.8864 | Beta-actin expression [1]: 0.7738 and 0.942 and 0.6998 and 1.204 | Beta-actin, sequence 2 expression [1]: 0.7894 and 1.034 and 1.023 and 0.5893 | Beta-tubulin, class I expression [1]: 0.7904 and 0.7769 and 1.118 and 1.041 and 1.416 | Biliverdin reductase expression [1]: 1.244 and 1.177 and 0.9432 and 0.9712 | CDK108 expression [1]: 0.7646 and 0.771 and 0.9296 and 1.067 and 0.6341 | Calpactin I heavy chain expression [1]: 1.24 and 0.9779 and 0.9969 and 0.9558 and 1.503 | Calpain 2 expression [1]: 1.074 and 1.028 and 1.069 | Cathepsin B expression [1]: 1.062 and 1.634 and 1.119 and 0.9643 and 1.263 | Cathepsin L, sequence 2 expression [1]: 0.793 and 1.456 and 0.963 and 0.9594 | Cathepsin S expression [1]: 0.8837 and 1.721 and 1.401 | Cyclin D1 expression [1]: 0.9348 and 0.6137 and 1.116 and 1.1 and 0.745 | Cystatin C expression [1]: 0.7987 and 0.8206 and 1.149 and 1.058 and 1.138 | Dynamin-1 (D100) expression [1]: 0.974 and 0.8723 and 0.9822 and 1.024 and 0.9733 | Elongation factor-1 alpha expression [1]: 1.144 and 1.188 and 1.098 and 0.9078 and 1.206 | Equilbrative nitrobenzylthioinosine-sensitive nucleoside transporter expression [1]: 1.073 and 0.9454 and 0.9032 and 1.004 and 0.9505 | F1-ATPase beta subunit expression [1]: 0.7234 and 0.6975 and 0.9473 and 0.9602 and 1.189 | Gamma-actin, cytoplasmic expression [1]: 0.982 and 0.9804 and 1.031 and 1.54 | Glutathione S-transferase theta-1 expression [1]: 0.8059 and 0.9415 and 0.8757 and 1.133 | High affinity IgE receptor gamma chain (FcERIgamma) expression [1]: 0.9724 and 1.018 and 1.021 and 1.327 | Hypoxanthine-guanine phosphoribosyltransferase expression [1]: 0.7468 and 0.8598 and 0.8651 and 0.806 and 0.9251 | IgE binding protein expression [1]: 1.306 and 1.678 and 1.071 and 1.114 and 1.302 | JNK1 stress activated protein kinase expression [1]: 0.666 and 0.9165 and 0.9272 and 0.962 and 0.7174 | Melanoma-associated antigen ME491 expression [1]: 1.025 and 1.238 and 1.062 and 1.098 and 1.559 | Multidrug resistant protein-1 expression [1]: 1.082 and 1.58 and 1.118 and 1.184 and 0.9501 | Multidrug resistant protein-2 expression [1]: 0.8809 and 1.298 and 1.165 and 1.156 and 0.7835 | N-hydroxy-2-acetylaminofluorene sulfotransferase (ST1C1) expression [1]: 1.02 and 0.9797 and 0.9522 and 1.016 | NADP-dependent isocitrate dehydrogenase, cytosolic expression [1]: 0.865 and 1.545 | NIPK expression [1]: 1.08 and 1.011 and 0.9454 and 0.9651 | Organic cation transporter 3 expression [1]: 0.8883 and 1.096 and 1.263 | Ornithine decarboxylase expression [1]: 0.8334 and 1.039 and 1.055 and 1.097 and 1.469 | Osteoactivin expression [1]: 1.459 and 1.435 and 0.9157 and 0.9271 and 1.449 | Paraoxonase 1 expression [1]: 0.7398 and 0.6886 and 1.221 and 1.224 | Phase-1 RCT-24 expression [1]: 0.8968 | Phase-1 RCT-39 expression [1]: 1.47 and 0.9339 and 0.9947 | Phase-1 RCT-43 expression [1]: 0.9905 and 0.9704 and 0.9375 | Phase-1 RCT-57 expression [1]: 0.8991 and 0.6888 | Phase-1 RCT-78 expression [1]: 0.8505 and 0.8237 | Phase-1 RCT-81 expression [1]: 1.102 | Phase-1 RCT-107 expression [1]: 0.9169 and 0.6899 | Phase-1 RCT-109 expression [1]: 0.6916 | Phase-1 RCT-117 expression [1]: 0.9421 and 0.9667 | Phase-1 RCT-138 expression [1]: 0.9832 | Phase-1 RCT-144 expression [1]: 0.8629 | Phase-1 RCT-146 expression [1]: 0.9994 | Phase-1 RCT-149 expression [1]: 1.1 and 0.8836 | Phase-1 RCT-154 expression [1]: 0.8651 and 0.9418 and 0.9917 | Phase-1 RCT-156 expression [1]: 1.103 | Phase-1 RCT-164 expression [1]: 0.9378 and 0.8318 and 0.9484 | Phase-1 RCT-173 expression [1]: 0.7045 and 0.5898 | Phase-1 RCT-174 expression [1]: 0.7203 and 0.6816 | Phase-1 RCT-179 expression [1]: 1.2 and 0.9105 and 1.544 | Phase-1 RCT-192 expression [1]: 0.999 | Phase-1 RCT-207 expression [1]: 0.9742 | Phase-1 RCT-211 expression [1]: 0.8217 and 0.6431 | Phase-1 RCT-213 expression [1]: 0.8004 | Phase-1 RCT-227 expression [1]: 0.8538 | Phase-1 RCT-260 expression [1]: 0.974 and 0.93 | Phase-1 RCT-290 expression [1]: 0.5411 and 0.6526 | Poly(ADP-ribose) polymerase expression [1]: 0.8263 and 1.077 and 0.8901 and 0.8489 and 1.291 | Pyruvate kinase, muscle expression [1]: 1.141 and 1.584 and 1.146 and 1.081 and 0.8598 | Ribosomal protein L13A expression [1]: 1.178 and 0.9908 and 0.8711 | Ribosomal protein S8 expression [1]: 1.069 and 1.043 and 1.983 and 1.441 | Ribosomal protein S17 expression [1]: 0.9563 and 0.9932 and 1.772 and 1.494 | Stathmin expression [1]: 0.8925 and 1.067 and 1.025 and 0.9726 and 0.8514 | Thioredoxin-1 (Trx1) expression [1]: 0.9876 and 1.146 and 1.089 and 0.8216 and 0.7283 | Thymosin beta-10 expression [1]: 0.8732 and 1.234 and 1.068 and 0.8379 | Tissue plasminogen activator expression [1]: 0.8347 and 0.7599 and 0.9719 and 1.009 and 1.011 | Transitional endoplasmic reticulum ATPase expression [1]: 0.9168 and 0.8359 and 1.015 and 0.9607 and 1.436 | Ubiquitin conjugating enzyme (RAD 6 homologue) expression [1]: 0.9338 and 0.984 and 0.8685 and 0.6936 and 1.384 | Uncoupling protein 2 expression [1]: 1.105 and 1.472 and 1.007 and 0.9206 | Zinc finger protein expression [1]: 0.8577 and 1.115 and 0.9673 and 0.8957 and 1.145 | p55CDC expression [1]: 1.198 and 1.343 and 1.163 and 1.148 and 0.9509 | {Phase-1 RCT 98} expression [1]: 0.8993 and 0.665 and 1.028 and 1.025 | {Ribosomal protein 16} expression [1]: 1.136 and 1.255 and 1.519 | Score (histopathology liver necrosis severity score) (Sprague Dawley rats; 50 mg/kg): 1 | Score (histopathology liver necrosis severity score) (Sprague Dawley rats; 200 mg/kg): 1 | Liver Necrosis (Sprague Dawley rats; 50 mg/kg): no | Liver Necrosis (Sprague Dawley rats; 200 mg/kg): no

Reference: patent US20040076974A1, “Liver necrosis predictive genes” (priority 2002, published 2004)
